# Assays:
# TNF-α [1] = experiment: Ex vivo LPS-stimulated TNF-α in blood of dosed healthy subjects, PK/PD inhibitory Emax model; set-up: species or system human
# Method: Blood samples of 10 mL were collected for PD analysis. For the SAD cohorts, blood was collected before dosing and 1, 12, and 24 hours after dosing. For the MAD cohorts, on day 1 blood was collected before the morning dose and 4 and 12 hours after the morning dose (prior to the evening dose); on day 7, blood was collected before the morning dose and 4 and 12 hours after the morning dose.
# Additional details of the assays for analyzing p-HSP27 and cytokines are included in the Supplementary Information.
# Pharmacodynamics. PD data analysis was conducted using Microsoft Excel 2010 (Microsoft, Redmond, WA), Meso Scale Discovery Workbench® analysis software (Rockville, MD), and Phoenix WinNonlin, version 8.2.
# Sample Preparation for Cytokine Analysis. For each sample, 180 μL aliquots were transferred into 7 wells of a round bottom 96 well tissue culture polystyrene low evaporation plate. […] No outer wells on the plates were used and all wells surrounding the samples contained 200 μL of phosphate buffered saline.
# DMSO was added to all wells in groups ‘A’ and ‘C’ to a final concentration of 0.1% ([…] of a 2% DMSO solution in DMEM containing 10% FBS and 1% penicillin/streptomycin/glutamine). […] Samples were mixed gently for 30 seconds on a plate shaker using pin tools, then placed in an incubator at 37° C./5% CO2 for 1 hour.
# Samples in groups ‘A’ and ‘B’ were stimulated with lipopolysaccharide at a final concentration of 100 ng/mL. A stock solution of lipopolysaccharide at 1 mg/mL in DMEM containing 10% FBS and 1% penicillin/streptomycin was diluted to […] in DMEM containing 10% FBS and 1% penicillin/streptomycin, and […] of this working solution was added per well of blood for all samples in groups ‘A’ and ‘B’. […] of DMEM containing 10% FBS only was added per well of blood for all samples in group ‘C’ (unstimulated samples). Samples were mixed gently for 30 seconds on a plate shaker using pin tools, then placed in an incubator at 37° C./5% CO2 for 5 hours.
# Following the incubation, the plates were removed from the incubator and sealed with adhesive clear plate seals. The plates were then centrifuged for 10 minutes at 1800×g at room temperature. […] of plasma was removed from each well and transferred to a 96-well polypropylene round bottom master plate, which was then sealed and frozen at −80° C. until all samples from the respective cohort were generated. Once all samples from a given cohort were generated, the samples were analyzed for cytokine (TNF-α, IL-1b, IL-6, and IL-8) production using Meso Scale Discovery Technology.
# Analysis of Cytokine Levels Using Meso Scale Discovery Technology. All lipopolysaccharide plasma samples were analyzed for cytokine production with a V-Plex Human Proinflammatory Panel II (4-Plex) Kit from Meso Scale Discovery (Rockville, MD). The master plates containing the plasma samples were thawed on ice, and a daughter plate consisting of a 25-fold dilution of each plasma sample (3 μL of plasma plus 72 μL of Meso Scale Discovery Diluent 2) was generated for each master plate. The diluted plasma samples from the daughter plates were used in the cytokine analysis. The Meso Scale Discovery 4-plex plates were washed 3 times with 150 μL/well of wash buffer (1×KPL phosphate buffered saline with Tween 20 from SeraCare [Milford, MA]). Prepared calibrators and the samples from the daughter plates were added to the washed Meso Scale Discovery 4-plex plates at 50 μL/well. The 4-plex plates were sealed and shaken overnight at 4° C.
# After the overnight incubation, the samples were removed by decanting. The 4-plex plates were then washed 3 times with 150 μL/well of wash buffer. […]
# TNF-α [2] = experiment: Mouse neutrophil (mPMN) IL-1α stimulated TNF-α; type: cell-based
# Method: Biosynthesis of […] was quantified using MSD technology. […] Cells and compound were stimulated with mouse IL-1α to a final concentration of 10 ng/mL and incubated for 4 hours at 37° C. Supernatants were collected and TNF-α levels quantitated using MSD technology.
# [3] = test system: p-HSP27, TNF-α, IL-1β, IL-6 and IL-8; experiment: Ex vivo LPS-stimulated p-HSP27 and cytokines in dosed healthy subjects, summary statements over several analytes; set-up: species or system human; conditions: SAD and MAD cohorts
# Method: Blood samples of 10 mL were collected for PD analysis. For the SAD cohorts, blood was collected before dosing and 1, 12, and 24 hours after dosing. For the MAD cohorts, on day 1 blood was collected before the morning dose and 4 and 12 hours after the morning dose (prior to the evening dose); on day 7, blood was collected before the morning dose and 4 and 12 hours after the morning dose. […] Additional details of the assays for analyzing p-HSP27 and cytokines are included in the Supplementary Information. Pharmacodynamics. PD data analysis was conducted using Microsoft Excel 2010 (Microsoft, Redmond, WA), Meso Scale Discovery Workbench® analysis software (Rockville, MD), and Phoenix WinNonlin, version 8.2.
# [4] = in vivo; cited from earlier work
# [5] = cited from earlier work
# clinical = conditions: male, human, in vivo
# [6] = Phase 1 SAD/MAD safety and tolerability in healthy subjects (incl. 80/120 mg BID extension)
# Method: Single ascending dose (SAD) cohorts.
# Multiple ascending dose (MAD) cohorts. […] Subjects were admitted to the clinical facility on day −1 and remained at the site until 72 hours after the morning dose on day 7.
# Safety and Tolerability Assessments. Adverse events, clinical laboratory tests, vital signs, an electrocardiogram, Holter monitoring, and physical examination results were evaluated for each subject in both parts of the study.
# Methods: Safety, pharmacokinetics (PK) and pharmacodynamics (PD) were assessed in two cohorts of subjects in a randomized, observer-blind, placebo-controlled study in male and female healthy subjects aged 18-55 (n=77). The study consisted of twenty (20) subjects enrolled into 2 cohorts. […] The final dose was administered in the morning on Day 7. Blood samples were obtained Day 1—before dosing, Day 1—4 hours after dosing and Day 1—12 hours after dosing and Day 7—before dosing, Day 7—4 hours after dosing, day 7—12 hour after dosing and Day 7—24 hours after dosing for each subject.
# [7] = all ATI-450 SAD and MAD cohorts, 3/48
# [8] = all ATI-450 SAD and MAD cohorts, n = 48
smiles,measurement,setting,value
"Cc1cnc(-c2ccnc(C(C)(C)O)n2)cc1-n1c(C)cc(OCc2ncc(F)cc2F)c(Cl)c1=O (single isomer, unassigned) [ATI-450, 3-chloro-4-((3,5-difluoropyridin-2-yl)methoxy)-2′-(2-(2-hydroxypropan-2-yl)pyrimidin-4-yl)-5′,6-dimethyl-2H-[1,4′-bipyridin]-2-one]",TNF-α inhibition versus baseline,TNF-α [1]; 50 mg BID MAD cohort,up to 92.7%
same,Cmax (Multiple of IC80),"TNF-α [1]; 50 mg BID, day 7",3.5x
same,Ctrough (Multiple of IC80),"TNF-α [1]; 50 mg BID, day 7",1.4x
same,IC80,"TNF-α [1]; Homo sapiens, calculated from IC50, combined SAD and MAD data, read-out: IC80, plasma concentration at 80% of maximal inhibition",0.0626 µg/mL
same,IC50,"TNF-α [1]; Homo sapiens, inhibitory Emax model, combined SAD and MAD data, read-out: IC50, plasma concentration at half maximal inhibition",0.0156 µg/mL
same,"IC80, plasma concentration at 80% of maximal inhibition","TNF-α [1]; calculated from IC50, combined SAD and MAD data",0.0626 µg/mL
same,IC50,"TNF-α [2]; Mus musculus, Neutrophil, mPMN, IL-1α, 10 ng/mL, 4 hr",5 nM
same,IL-1α mediated TNF-α signaling in neutrophils,"TNF-α [2]; mouse IL-1α 10 ng/mL, 4 hours",dose dependently inhibits
same,"modulation of p-HSP27 and inhibition of production of TNF-α, IL-1β, IL-6, and IL-8",[3],concentration-dependent and dose-dependent modulation
same,effect in rat streptococcal cell wall arthritis model,[4],joint protective effects and preserved bone mineral density
same,bone marrow IL-1β in murine NOMID model,[5]; relative to placebo,reduction in bone marrow levels of IL-1β
same,effect on disease in murine NOMID model,[5]; transgenic animal model,dramatic attenuation of disease
same,Tmax,clinical,2 h
same,subjects with TEAEs considered related to the study drug,"[6]; 10 mg BID cohort, 1 of 8",13%
same,subjects with TEAEs considered related to the study drug,"[6]; 30 mg BID cohort, 5 of 8",63%
same,subjects with TEAEs considered related to the study drug,"[6]; 50 mg BID cohort, 3 of 8",38%
same,neutrophils,"[6]; 50 mg BID, day 7 (baseline 3318.4 cells/μL)",2514.4 cells/μL
same,mean reduction in neutrophils,"[6]; 50 mg BID, day 7 vs baseline",24%
same,"Constipation, AE, n (%)","[6]; 80 mg BID, 7 days, n = 8",1 (14%)
same,"Dizziness, AE, n (%)","[6]; 80 mg BID, 7 days, n = 8",2 (25%)
same,"Headache, AE, n (%)","[6]; 80 mg BID, 7 days, n = 8",2 (25%)
same,"Xerosis, AE, n (%)","[6]; 80 mg BID, 7 days, n = 8",1 (13%)
same,tolerability,"[6]; 80 mg and 120 mg BID, 7 days",well tolerated with no severe adverse effects reported
same,"Abdominal Pain, AE, n (%)","[6]; 120 mg BID, 7 days, n = 8",1 (13%)
same,"Dizziness, AE, n (%)","[6]; 120 mg BID, 7 days, n = 8",6 (75%)
same,"Headache, AE, n (%)","[6]; 120 mg BID, 7 days, n = 8",7 (88%)
same,"Loose stools, AE, n (%)","[6]; 120 mg BID, 7 days, n = 8",1 (13%)
same,"Nausea, AE, n (%)","[6]; 120 mg BID, 7 days, n = 8",2 (25%)
same,"Parasthesia, AE, n (%)","[6]; 120 mg BID, 7 days, n = 8",2 (25%)
same,"Pharyngitis, AE, n (%)","[6]; 120 mg BID, 7 days, n = 8",1 (13%)
same,"Xerosis, AE, n (%)","[6]; 120 mg BID, 7 days, n = 8",5 (63%)
same,"neutrophils, laboratory change","[6]; MAD cohort, maximum effect Day 2 to Day 5",dose dependent reduction in neutrophils
same,character of TEAEs,[6]; MAD cohorts 10-50 mg BID,"mild, transient, and resolved without sequelae"
same,"deaths, serious adverse events",[6]; MAD cohorts 10-50 mg BID,no deaths or SAEs
same,subjects with TEAEs considered related to the study drug,"[6]; MAD cohorts 10-50 mg BID, 9 of 24",38%
same,subjects reporting TEAEs,"[6]; MAD cohorts 10-50 mg BID, 12 of 24",50%
same,"vital signs, electrocardiograms, clinical laboratory values",[6]; SAD and MAD cohorts,No clinically significant findings
same,character of TEAEs,[6]; SAD cohorts,"mild, transient, and resolved without sequelae"
same,"deaths, serious adverse events, discontinuations",[6]; SAD cohorts,No deaths or serious adverse events (SAEs)
same,subjects with TEAEs considered related to the study drug,"[6]; SAD cohorts, 4 of 24",17%
same,subjects reporting TEAEs,"[6]; SAD cohorts, 7 of 24",29%
same,"constipation, subjects with adverse event",[6]; [7],6.3%
same,"upper respiratory tract infection, subjects with adverse event",[6]; [7],6.3%
same,"dizziness, subjects with adverse event","[6]; all ATI-450 SAD and MAD cohorts, 6/48",12.5%
same,"Abdominal pain, treatment-emergent adverse event, n subjects",[6]; [8],2
same,"Constipation, treatment-emergent adverse event, n subjects",[6]; [8],3
same,"Dizziness, treatment-emergent adverse event, n subjects",[6]; [8],6
same,"Headache, treatment-emergent adverse event, n subjects",[6]; [8],10
same,"Nausea, treatment-emergent adverse event, n subjects",[6]; [8],2
same,"Upper respiratory tract infection, treatment-emergent adverse event, n subjects",[6]; [8],3
same,"Vomiting, treatment-emergent adverse event, n subjects",[6]; [8],0
same,subjects with TEAEs considered related to the study drug,[6]; single dose 10 mg cohort,0 subjects
same,subjects with TEAEs considered related to the study drug,[6]; single dose 30 mg cohort,33%
same,subjects with TEAEs considered related to the study drug,[6]; single dose 50 mg cohort,17%
same,subjects with TEAEs considered related to the study drug,[6]; single dose 100 mg cohort,1 subject
same,safety and tolerability,"[6]; single doses up to 100 mg, multiple doses up to 50 mg BID for 7 days",generally safe and well tolerated

# Reference: patent US11844801B2, “Oral compositions of MK2 pathway inhibitor for treatment of immune conditions” (priority 2020, dated 2023)
